{
  "source": "patent US20020051760A1",
  "about": "“Method for screening a substance having promoting activity on hair growth” (SUMITOMO ELECTRIC INDUSTRIES, Ltd., priority 2000, published 2002)",
  "key": {"[1]": {"test_system": "Hacl-1 in the cultures (mouse beard)", "assay": "Induction of Hacl-1 expression in cultured mouse beard", "assay_type": "cell-based, mice", "conditions": "50 μg/ml, cultivation for 5 days; the control showed only slight expression", "protocol": "(§1) A C57BL mouse (14 weeks old) was shaved on the back with clippers to confirm that the mouse had both skin areas in anagen and telogen as to the hair cycle based on colors of the skin. Each 200 mg of the skin areas in anagen and telogen was collected from the mouse and homogenized on ice for 2 minutes, and then suspended in a buffer (PBS). The supernatant was collected and subjected to SDS-polyacrylamide gel electrophoresis (SDS-PAGE). The respective hair follicles in telogen and anagen were distinguished by observing the tissue section under a microscope, and the criterion shown in FIG. 1 was applied for judgment.\nThe beard on the both sides of the mice used in Example 2 was collected and cultured by the method described in Development, 105, pp. 271-277, 1989. The beard from one side was used as a control, and that from the other side was treated with the aforementioned oligopeptide ssb7 (50 μg/ml). After cultivation for 5 days, Hacl-1 in the cultures was determined according to the method of Example 1."}, "[2]": {"test_system": "Hacl-1 in the hair follicles", "assay": "Induction of Hacl-1 expression and anagen in hair follicles of mouse back skin after subcutaneous injection", "assay_type": "in vivo", "conditions": "C57BL/6 mice in telogen, 0.8 mg/ml solution, 0.1 ml subcutaneously 5 times at intervals of 24 hours", "protocol": "as §1\nPromoting activity on hair growth of the aforementioned polypeptide H1 and oligopeptide ssb7 was evaluated. C57BL/6 mice are known to have sustained telogen for about 50 days from the 45-day after birth to around the 95-day, and the hair cycle of the animal is easily judged based on the skin color changes, i.e., from pink in telogen to gray or black in anagen. […] The polypeptide H1 solution (0.8 mg/ml) or the oligopeptide ssb7 solution (0.8 mg/ml) prepared above was subcutaneously injected 5 times in the amount of 0.1 ml at intervals of 24 hours, and Hacl-1 in the hair follicles was measured with time according to the method of Example 1."}},
  "note": "Where no end group is shown, it is not given here.",
  "data": [
    {"substance": "ssb7: S-S bridged oligopeptide obtained by crosslinking pep7 (Ser-Ile-Glu-Gln-Ser-Cys-Asp-Gln-Asp-Glu) with BMH (SIEQSCDQDE; not fully specified; printed as Ser-Ile-Glu-Gln-Ser-Cys-Asp-Gln-Asp-Glu; also: two chains crosslinked through Cys6 by BMH (bismaleimidohexane))", "values": [
      {"measurement": "expression of Hacl-1 in cultured beard", "setting": "[1]", "result": "expression of Hacl-1 was observed"},
      {"measurement": "induction of anagen of the hair follicles", "setting": "[2]; 20-day, judged from Hacl-1 expression", "result": "induction of anagen"},
      {"measurement": "Hacl-1 band in hair follicle samples (Western Blotting with antiserum against Hacl-1)", "setting": "[2]; samples at 20-day", "result": "clear band of Hacl-1 was observed"}
    ]}
  ]
}
